Measurements taken from the supplement of paper PMC10307832.

Assays:
Experiment in all cases: relative viability (nuclei count vs DMSO), 5 days (fraction); higher = more cells survive
[1] = compound: C1CC(C1)(C(=O)O)C(=O)O.[NH2-].[NH2-].[Pt+2] [Carboplatin] + NC(=O)Nc1cc(-c2cccc(F)c2)sc1C(=O)N[C@H]1CCCNC1 [AZD7762] (partner 0.2 µM)
How it was run: (§1)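 After 5 days of treatment, lung cancer cells in 1536-well plates were fixed and stained in a single step (final 0.05% Triton X-100, 1% formaldehyde, 1 ug/ml Hoechst) and their nuclei counted on 4× images. Treatment had been applied by pin tool the day after seeding as one drug alone or as a fixed anchor-drug dose with five library-drug doses (not always all listed) in √10 steps. Relative viability is the nuclei count of treated wells divided by that of vehicle wells, and values are medians of duplicate plates.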

[2] = compound: CC[C@H](C)N1C=C(C2=C(C=C(C=C21)C3=CN=C(C=C3)N4CCNCC4)C(=O)NCC5=C(C=C(NC5=O)C)C)C [GSK126] + NC(=O)Nc1cc(-c2cccc(F)c2)sc1C(=O)N[C@H]1CCCNC1 [AZD7762] (partner 0.2 µM)
How it was run: as §1

[3] = compound: NS(=O)(=O)OC[C@@H]1C[C@@H](n2ccc3c(N[C@H]4CCc5ccccc54)ncnc32)C[C@@H]1O [MLN4924] + O=C(c1cc(Cc2n[nH]c(=O)c3ccccc23)ccc1F)N1CCN(C(=O)C2CC2)CC1 [Olaparib] (partner 8 µM)
How it was run: as §1

[4] = compound: C1CC(C1)(C(=O)O)C(=O)O.[NH2-].[NH2-].[Pt+2] [Carboplatin] + Cc1nc(Nc2ncc(C(=O)Nc3c(C)cccc3Cl)s2)cc(N2CCN(CCO)CC2)n1 [Dasatinib] (partner 0.075 µM)
How it was run: as §1

Row | Cell Line | relative viability ([1]; first compound 0.08 µM) | relative viability ([1]; first compound 0.253 µM) | relative viability ([1]; first compound 0.8 µM) | relative viability ([1]; first compound 2.53 µM) | relative viability ([1]; first compound 8 µM) | relative viability ([2]; first compound 0.08 µM) | relative viability ([2]; first compound 0.253 µM) | relative viability ([2]; first compound 0.8 µM) | relative viability ([2]; first compound 2.53 µM) | relative viability ([2]; first compound 8 µM) | relative viability ([3]; first compound 0.04 µM) | relative viability ([3]; first compound 0.1265 µM) | relative viability ([3]; first compound 0.4 µM) | relative viability ([3]; first compound 1.265 µM) | relative viability ([3]; first compound 4 µM) | relative viability ([4]; first compound 0.08 µM) | relative viability ([4]; first compound 0.253 µM) | relative viability ([4]; first compound 0.8 µM) | relative viability ([4]; first compound 2.53 µM) | relative viability ([4]; first compound 8 µM)
1 | NCI-H727 | 0.579 | 0.461 | 0.628 | 0.685 | 0.639 | 0.683 | 0.619 | 0.539 | 0.64 | 0.458 | 0.599 | 0.422 | 0.559 | 0.369 | 0.481 | 0.472 | 0.356 | 0.374 | 0.364 | 0.376
2 | NCI-H1734 | 0.575 | 0.558 | 0.558 | 0.46 | 0.419 | 0.597 | 0.497 | 0.526 | 0.576 | 0.531 | 0.652 | 0.547 | 0.128 | 0.108 | 0.107 | 0.471 | 0.449 | 0.454 | 0.463 | 0.443
3 | EMC-BAC-2 | 1.15 | 0.993 | 1.11 | 1.07 | 0.973 | 1.05 | 1.1 | 1.1 | 1.09 | 1.04 | 0.397 | 0.286 | 0.225 | 0.214 | 0.241 | 0.327 | 0.343 | 0.305 | 0.271 | 0.281
4 | EKVX | 0.743 | 0.757 | 0.737 | 0.739 | 0.537 | 0.648 | 0.747 | 0.753 | 0.787 | 0.672 | 0.801 | 0.588 | 0.531 | 0.206 | 0.169 | 0.603 | 0.582 | 0.48 | 0.446 | 0.495
5 | NCI-H596 | 1.25 | 1.18 | 1.09 | 0.885 | 0.693 | 1.12 | 0.904 | 1.2 | 1.12 | 0.988 | 0.815 | 0.626 | 0.436 | 0.595 | 0.557 | 0.725 | 0.72 | 0.697 | 0.525 | 0.539
6 | NCI-H358 | 0.732 | 0.514 | 0.516 | 0.575 | 0.561 | 0.552 | 0.471 | 0.482 | 0.768 | 0.476 | 0.537 | 0.494 | 0.312 | 0.0861 | 0.105 | 0.162 | 0.171 | 0.163 | 0.178 | 0.18
7 | LOU-NH91 | 0.824 | 0.761 | 0.751 | 0.764 | 0.773 | 0.789 | 0.737 | 0.714 | 0.822 | 0.727 | 0.887 | 0.844 | 0.724 | 0.47 | 0.48 | 0.674 | 0.578 | 0.542 | 0.568 | 0.538
8 | NCI-H1437 | 1.22 | 1.09 | 0.927 | 0.955 | 1.03 | 1.19 | 1.06 | 1.05 | 1.1 | 0.966 | 0.582 | 0.499 | 0.409 | 0.253 | 0.153 | 0.619 | 0.411 | 0.428 | 0.411 | 0.325
9 | H3255 | 1.08 | 0.917 | 0.852 | 0.832 | 0.734 | 1.08 | 0.887 | 0.938 | 1.05 | 0.788 | 0.481 | 0.372 | 0.297 | 0.253 | 0.268 | 0.367 | 0.416 | 0.418 | 0.415 | 0.334
10 | NCI-H1666 | 0.973 | 0.916 | 0.811 | 0.779 | 0.831 | 0.861 | 0.8 | 0.82 | 0.936 | 0.813 | 0.774 | 0.691 | 0.657 | 0.468 | 0.388 | 0.836 | 0.774 | 0.589 | 0.533 | 0.561
11 | HCC-78 | 0.744 | 0.712 | 0.656 | 0.693 | 0.644 | 0.675 | 0.652 | 0.604 | 0.832 | 0.736 | 0.867 | 0.967 | 0.684 | 0.222 | 0.22 | 0.576 | 0.425 | 0.372 | 0.416 | 0.489
12 | CAL-12T | 0.848 | 0.579 | 0.674 | 0.555 | 0.548 | 0.751 | 0.562 | 0.622 | 0.554 | 0.589 | 0.667 | 0.538 | 0.249 | 0.17 | 0.13 | 0.375 | 0.502 | 0.419 | 0.521 | 0.372
13 | LU99A | 0.425 | 0.405 | 0.349 | 0.243 | 0.196 | 0.37 | 0.254 | 0.338 | 0.346 | 0.392 | 0.18 | 0.136 | 0.16 | 0.108 | 0.0968 | 0.562 | 0.559 | 0.511 | 0.39 | 0.384
14 | RERF-LC-KJ | 1.14 |  | 1.04 | 0.995 | 0.828 |  | 1.09 | 0.959 | 1.1 | 1.03 | 0.624 | 0.344 | 0.221 | 0.206 | 0.218 | 0.892 | 0.767 | 0.747 | 0.706 | 0.517
15 | NCI-H2126 | 0.972 | 1.06 | 1.05 | 1.03 | 0.931 | 1.13 | 0.988 | 0.974 | 0.945 | 1.06 | 0.862 | 0.668 | 0.618 | 0.258 | 0.246 | 0.727 | 0.693 | 0.71 | 0.57 | 0.501
16 | SW 900 | 0.651 | 0.689 | 0.531 | 0.533 | 0.542 | 0.765 | 0.559 | 0.582 | 0.585 | 0.58 |  | 0.594 | 0.429 | 0.233 | 0.228 | 0.837 | 0.616 | 0.442 | 0.409 | 0.467
17 | LXF-289 | 1.17 | 1.16 | 1.07 | 1.06 | 1.03 | 1.16 | 1.11 | 0.956 | 1.1 | 1.09 | 0.919 | 0.429 | 0.381 | 0.132 | 0.0927 | 0.327 | 0.24 | 0.223 | 0.264 | 0.232
18 | BEN | 0.912 | 0.792 | 0.725 | 0.723 | 0.818 | 0.718 | 0.605 | 0.785 | 0.744 | 0.612 | 0.662 | 0.328 | 0.264 | 0.189 | 0.207 | 0.339 | 0.296 | 0.284 | 0.319 | 0.228
19 | NCI-H1993 | 0.973 | 0.899 | 0.864 | 0.871 | 0.695 | 0.836 | 0.754 | 0.702 | 0.9 | 0.795 | 0.776 | 0.481 | 0.652 | 0.422 | 0.426 | 0.517 | 0.591 | 0.522 | 0.559 | 0.601
20 | NCI-H522 | 0.783 | 0.74 | 0.876 | 0.908 | 0.728 | 0.849 | 0.888 | 0.904 | 0.93 | 0.964 | 0.568 | 0.495 | 0.485 | 0.288 | 0.322 | 0.751 | 0.88 | 0.859 | 0.911 | 0.886
21 | LCLC-97TM1 | 0.221 | 0.336 | 0.367 | 0.163 | 0.228 | 0.307 | 0.312 | 0.228 | 0.267 | 0.24 | 0.282 | 0.138 | 0.0947 | 0.0518 | 0.0597 | 0.848 | 0.921 | 0.844 | 0.808 | 0.647
22 | HCC-827 | 0.245 | 0.204 | 0.213 | 0.182 | 0.223 | 0.214 | 0.191 | 0.24 | 0.232 | 0.196 | 0.637 | 0.412 | 0.34 | 0.164 | 0.141 | 0.327 | 0.326 | 0.337 | 0.35 | 0.432
23 | NCI-H1975 | 0.868 | 0.746 | 0.679 | 0.742 | 0.691 | 0.775 | 0.703 | 0.682 | 0.784 | 0.64 | 0.706 | 0.948 | 0.829 | 0.498 | 0.213 | 0.433 | 0.374 | 0.358 | 0.366 | 0.375
